Source: patent publication US20190031618A1, “BENZIMIDAZOLE DERIVATIVES USEFUL AS CB-1 INVERSE AGONISTS” (Janssen Pharmaceutica NV, priority 2015, published 2019)

What was measured:
[1] = biological target: Human CB2R (Cannabinoid receptor 2) (Homo sapiens, UniProt P34972); assay: CB-2 in vitro cAMP (HTRF) assay; format: cell-based; details: HEK cells, cAMP HTRF, 250 nM forskolin; mean where tested more than once; read-out: CB2 HEK_cAMP EC50
Description: (§1) CB1 and CB2 receptors are Gi-coupled GPCR. Activation of CB1 and CB2 receptors results in a decrease in cAMP production. An inverse agonist of the CB1 or CB2 receptor results in the opposite effect, an increase of cAMP production. The principle of this assay is based on HTRF® technology (Homogeneous Time-Resolved Fluorescence). The method is a competitive immunoassay between native cAMP produced by cells and the cAMP labeled with the fluorophore d2. The tracer binding is quantified by a Mab anti-cAMP labeled with Eu3+TBP-NHS Cryptate (supplied as part of the assay kit). The specific signal (i.e. energy transfer) is inversely proportional to the concentration of cAMP in the standard or sample.
Human CB1R (Cannabinoid receptor 1) was stably transfected in HEK-293 cells (DiscoveRx, cat: 93-0200C1). Human CB2R (Cannabinoid receptor 2) was stably transfected in HEK-293 cells (DiscoveRx, cat: 93-0201C1). Cell cultures were maintained in media: DMEM (Invitrogen Cat#12430-054) supplemented with 10% HI FBS (Invitrogen Cat#16140-071), 1% L-glutamine (Invitrogen Cat#25030-081), 0.2 mg/ml Hygromycin B (Invitrogen Cat#10687-010), 600 μg/mL G418 (Invitrogen Cat#10131-035), and 1× Penn/Strep (Invitrogen 15140-122). After cell expansion, aliquots were cryo-stored in media containing 5% DMSO (Pierce Cat#20684).
(§2) One day prior to experiments media was warmed to 37° C. and the cryo-stored cells were thawed in a 37° C. water bath. The cells were then added to media (10× volume) and the mixture was centrifuged at 1000 RPM for 5 min. The supernate was removed and the cells were re-suspended in media. A sample of the cell suspension was evaluated on a Cedex XS automated cell counter (Innovatis Systems) to determine viable cells/ml. Additional media was added to the cells to achieve a final cell density of 4E5 cells/mL. The cells were then plated into 384 well PDL white solid bottom plates (Greiner, Cat#781945) at 20 μL per well using a Multidrop (Thermo Scientific). Cells were removed from Row P (location of cAMP standards). Two columns of cells were plated into a clear bottom 384 well PDL coated plate (Greiner, Cat#781944) to view confluence the day of the assay. The cell plates were lidded and stored for 15 minutes in a hood, then transferred to an incubator (37° C., 5% CO2, 95% humidity) overnight.
DMSO was added to all wells of 384 well V bottom polystyrene plate (Greiner, Cat#781280) except to columns 1 and 13, rows O and P and wells M13-M23 and N13-N23. Test compounds (60 μL, 10 mM) were added to Column 1 and 13 (A1 through N1 and A13 through L13). Test compounds were serially diluted 1/3 by transferring and mixing 20 μl sample with 40 μL DMSO.
DMSO (40 μL) was added to wells of 384 well V bottom polystyrene plate: O2 through O11, M14 through M23, N14 through N23, and O14 through O23. AM630 (also known as [6-iodo-2-methyl-1-[2-(4-morpholinyl)ethyl]-1H-indol-3-yl](4-methoxyphenyl)-methanone, Cayman Chemical, Cat#10006974) (60 μL, 10 mM) was added to O1; and 1-(2,4-dichlorophenyl)-7-[(4-fluorophenyl)methylene]-4,5,6,7-tetrahydro-N-1-piperidinyl-1H-benzimidazole-3-carboxamide (60 μL, 10 mM) was added to N13. The control was serially diluted 1/3 by transferring and mixing 20 μl sample with 40 μL DMSO. This process resulted 11 doses per control, 10 mM to […].
Cells plated the day prior to the assay in clear bottom plates were viewed on an inverse microscope to ensure confluency in the range of 60-75%. […]

[2] = biological target: Human CB1R (Cannabinoid receptor 1) (Homo sapiens, UniProt P21554); assay: CB-1 in vitro cAMP (HTRF) assay; format: cell-based; details: HEK cells, cAMP HTRF, 250 nM forskolin; mean where tested more than once; read-out: CB1 HEK_cAMP EC50
Description: as §1
Human CB1R (Cannabinoid receptor 1) was stably transfected in HEK-293 cells (DiscoveRx, cat: 93-0200C1). Human CB2R (Cannabinoid receptor 2) was stably transfected in HEK-293 cells (DiscoveRx, cat: 93-0201C1).
as §2, with “The cells were then plated into 384 well PDL white solid bottom plates (Greiner, Cat#781945) at 20 μL per well using a Multidrop (Thermo Scientific).” left out, “Two columns of cells were plated into a clear bottom 384 well PDL coated plate (Greiner, Cat#781944) to view confluence the day of the assay.” left out
Test compounds (60 μL, 10 mM) were added to Column 1 and 13 (A1 through N1 and A13 through L13). Test compounds were serially diluted 1/3 by transferring and mixing 20 μl sample with 40 μL DMSO.
DMSO (40 μL) was added to wells of 384 well V bottom polystyrene plate: O2 through O11, M14 through M23, N14 through N23, and O14 through O23. […] The control was serially diluted 1/3 by transferring and mixing 20 μl sample with 40 μL DMSO. This process resulted 11 doses per control, 10 mM to 0.5 μM.
Cells plated the day prior to the assay in clear bottom plates were viewed on an inverse microscope to ensure confluency in the range of 60-75%.
A FLEXDROP (Perkin Elmer) was cleaned with ethanol then water, and primed with Buffer 2. A 384 well V bottom polypropylene plate containing d2 labelled cAMP and a second 384 well V bottom polypropylene plate containing anti-cAMP was prepared (50 μl per well). Media as “dumped” from the cell plate and 30 μL Buffer 1 was added to each well using a Multidrop. The content of the cell plate was again “dumped” and 10 μL Buffer 2 was added to each well using a Flexdrop. […] The cell plate was mixed (Speed 6, Lab-Line Instruments Titer Plate Shaker) and centrifuged (1000 RPMs, 1 min). […] The cell plate was again mixed (speed 6) and centrifuged (1000 RPMs, 1 min). The cell plate was incubated for 30 minutes at room temperature (˜27° C.). The contents of row P were removed and the cAMP standard dilutions were added in duplicate to Row P (P1-12 and P13-24). After incubation, 6 μL d2 labelled cAMP and 6 μL of Anti-cAMP were added to all wells of the cell plate using a BioMek FX (Beckman Coulter). The cell plate was again mixed (speed 6) and centrifuged (1000 RPMs, 1 min) and was incubated for 60 minutes in the dark at room Temp (˜27° C.).
After this final incubation, the cell plate was read in HTRF mode (fluorescence at 665 nm and 620 nm) on an Envision plate Reader (Perkin Elmer). The Envision reader outputs a ratio of channel 1/channel 2 fluorescence×10,000 (Normalized signal (NS)). Amount of cAMP in nM was calculated for each well (based on NS) from a cAMP standard curve located on each plate (at P1-12 and P13-24). EC50 values were determined from a 4-point fit (Hill equation) of a single 11-point compound dosing. Hill slope was fixed at 1.0.

Sequence of Human CB1R (Cannabinoid receptor 1) (P21554 whole entry): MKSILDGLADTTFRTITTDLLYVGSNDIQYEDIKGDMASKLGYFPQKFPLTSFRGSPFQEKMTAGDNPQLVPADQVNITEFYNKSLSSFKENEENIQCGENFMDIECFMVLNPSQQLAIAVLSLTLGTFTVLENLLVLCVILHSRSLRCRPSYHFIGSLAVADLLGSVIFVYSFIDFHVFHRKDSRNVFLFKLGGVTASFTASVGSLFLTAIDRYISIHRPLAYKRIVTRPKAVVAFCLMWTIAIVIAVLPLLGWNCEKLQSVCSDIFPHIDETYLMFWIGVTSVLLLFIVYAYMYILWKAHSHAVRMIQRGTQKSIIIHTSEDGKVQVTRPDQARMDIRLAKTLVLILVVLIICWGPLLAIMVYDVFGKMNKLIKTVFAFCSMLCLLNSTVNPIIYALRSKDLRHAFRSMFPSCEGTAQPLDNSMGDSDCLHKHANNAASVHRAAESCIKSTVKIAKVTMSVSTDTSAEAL
Sequence of Human CB2R (Cannabinoid receptor 2) (P34972 whole entry): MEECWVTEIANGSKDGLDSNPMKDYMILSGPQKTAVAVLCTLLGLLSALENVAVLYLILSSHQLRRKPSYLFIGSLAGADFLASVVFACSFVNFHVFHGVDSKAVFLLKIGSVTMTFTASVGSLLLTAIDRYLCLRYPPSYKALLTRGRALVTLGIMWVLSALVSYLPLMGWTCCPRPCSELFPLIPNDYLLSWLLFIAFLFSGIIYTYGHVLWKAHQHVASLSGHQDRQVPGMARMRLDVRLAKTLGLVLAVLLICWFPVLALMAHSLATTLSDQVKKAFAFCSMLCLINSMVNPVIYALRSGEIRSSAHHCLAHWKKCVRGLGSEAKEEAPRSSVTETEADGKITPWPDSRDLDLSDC

Row | SMILES | EC50 [1] [nM] | EC50 [2] [nM]
1 | CC(c1cccc(C(=O)O)c1)N1CCC(n2c(C3CC3)nc3ccc(C(c4ccc(Cl)cc4)c4ccc(Cl)cc4)cc32)CC1 (single isomer, unassigned) [Example 47] | 17100 | 2.4
2 | CC(c1cccc(C(=O)O)c1)N1CCC(n2c(C3CC3)nc3ccc(C(c4ccc(Cl)cc4)c4ccc(Cl)cc4)cc32)CC1 (single isomer, unassigned) [Example 48] | 3840 | 3
3 | OC(Cn1c(C2CC2)nc2ccc(C(c3ccc(Cl)cc3)c3ccc(Cl)cc3)cc21)c1ccccc1 (single isomer, unassigned) [Example 289] | > 10000 | 29.2
4 | CCc1nc2ccc(C(c3ccc(Cl)cc3)c3ccc(Cl)cc3)cc2n1CC(C)c1ccccc1 (single isomer, unassigned) [Example 312] | 1500 | 49.2
5 | O=C(O)c1ccc(N2CCC(Cn3c(C4CC4)nc4ccc(C(c5ccc(Cl)cc5)c5ccc(Cl)cc5)cc43)CC2)cc1 [Example 1] | 2850 | 11.4
6 | O=C(O)c1ccnc(N2CCC(Cn3c(C4CC4)nc4ccc(C(c5ccc(Cl)cc5)c5ccc(Cl)cc5)cc43)CC2)n1 [Example 2] | 5030 | 479
7 | O=C(O)c1cnc(N2CCC(Cn3c(C4CC4)nc4ccc(C(c5ccc(Cl)cc5)c5ccc(Cl)cc5)cc43)CC2)nc1 [Example 4] | 2160 | 9.8
8 | COC(=O)c1cnc(N2CCC(Cn3c(C4CC4)nc4ccc(C(c5ccc(Cl)cc5)c5ccc(Cl)cc5)cc43)CC2)nc1 [Example 5] | 632 | 33
9 | O=C(O)c1ccc(-c2cccc(CCn3c(C4CC4)nc4ccc(C(c5ccc(Cl)cc5)c5ccc(Cl)cc5)cc43)c2)s1 [Example 6] | 3880 | 28.3
10 | Clc1ccc(C(c2ccc(Cl)cc2)c2ccc3nc(C4CC4)n(CCOc4cccc(Br)c4)c3c2)cc1 [Example 7] | 7600 | 26.7
11 | O=C(O)c1ccc(-c2cccc(S(=O)(=O)NCCCn3c(C4CC4)nc4ccc(C(c5ccc(Cl)cc5)c5ccc(Cl)cc5)cc43)c2)cc1 [Example 8] | 78.2 | 33.9
12 | O=S(=O)(NCCCn1c(C2CC2)nc2ccc(C(c3ccc(Cl)cc3)c3ccc(Cl)cc3)cc21)c1cccc(Br)c1 [Example 9] | 798 | 17
13 | O=C(O)c1cccc(CN2CCC(Cn3c(C4CC4)nc4ccc(C(c5ccc(Cl)cc5)c5ccc(Cl)cc5)cc43)CC2)c1 [Example 10] | 1750 | 322
14 | O=C(O)c1cccc(-c2cccc(CCn3c(C4CC4)nc4ccc(C(c5ccc(Cl)cc5)c5ccc(Cl)cc5)cc43)c2)c1 [Example 11] | 4970 | 49.4
15 | O=C(O)C(c1ccc(Cl)cc1)(c1ccc(Cl)cc1)c1ccc2nc(C3CC3)n(CC3CCN(S(=O)(=O)C(F)(F)F)CC3)c2c1 [Example 12] | > 10000 | > 10000
16 | COC(=O)c1cccc(N2CCC(Cn3c(C4CC4)nc4ccc(C(c5ccc(Cl)cc5)c5ccc(Cl)cc5)cc43)CC2)c1 [Example 13] | > 10000 | > 10000
17 | COC(=O)C(c1ccc(Cl)cc1)(c1ccc(Cl)cc1)c1ccc2nc(C3CC3)n(CC3CCN(S(=O)(=O)C(F)(F)F)CC3)c2c1 [Example 14] | > 10000 | 17
18 | O=C(O)c1ccc(S(=O)(=O)N2CCC(Cn3c(C4CC4)nc4ccc(C(c5ccc(Cl)cc5)c5ccc(Cl)cc5)cc43)CC2)cc1 [Example 15] | 700 | 73
19 | O=C(O)c1cc(OCCn2c(C3CC3)nc3ccc(C(c4ccc(Cl)cc4)c4ccc(Cl)cc4)cc32)cc(C(F)(F)F)c1 [Example 16] | 698 | 173
20 | O=C(O)c1ccc(-c2cccc(CCn3c(C4CC4)nc4ccc(C(c5ccc(Cl)cc5)c5ccc(Cl)cc5)cc43)c2)cc1 [Example 17] | 9400 | 82.9
21 | COC(=O)c1cc(OCCn2c(C3CC3)nc3ccc(C(c4ccc(Cl)cc4)c4ccc(Cl)cc4)cc32)cc(C(F)(F)F)c1 [Example 18] | > 10000 | 53.3
22 | Clc1ccc(C(c2ccc(Cl)cc2)c2ccc3nc(C4CC4)n(CCc4cccc(Br)c4)c3c2)cc1 [Example 20] | > 10000 | 15.6
23 | O=C(O)c1ccc(S(=O)(=O)N[C@H]2CC[C@H](n3c(C4CC4)nc4ccc(C(c5ccc(Cl)cc5)c5ccc(Cl)cc5)cc43)CC2)cc1 [Example 21] | 4540 | 253
24 | O=C(O)c1cccc(S(=O)(=O)N[C@H]2CC[C@H](n3c(C4CC4)nc4ccc(C(c5ccc(Cl)cc5)c5ccc(Cl)cc5)cc43)CC2)c1 [Example 22] | 1520 | 89
25 | O=C(O)c1cccc(OCCn2c(C3CC3)nc3ccc(C(c4ccc(Cl)cc4)c4ccc(Cl)cc4)cc32)c1 [Example 23] | 1880 | 182
26 | O=C(O)c1cccc(-c2ccc(CCn3c(C4CC4)nc4ccc(C(c5ccc(Cl)cc5)c5ccc(Cl)cc5)cc43)cc2)c1 [Example 24] | 7300 | 1940
